Measured values published in ChEMBL document CHEMBL3885881, “DrugMatrix”.

Organism: Rattus norvegicus
Test: DrugMatrix - Regimen: Daily Repeat
Assay type: toxicity, organism-based, Sprague-Dawley
Set-up: regimen Daily Repeat, gender Male, age 6-8 weeks
Conditions: in vivo, po, route oral GAVAGE, […]; for ABSOLUTE BASOPHIL / ABSOLUTE EOSINOPHIL / ABSOLUTE LYMPHOCYTE / ABSOLUTE MONOCYTE / ABSOLUTE SEGMENTED NEUTROPHIL / BASOPHIL / EOSINOPHIL / ERYTHROCYTE COUNT / HEMATOCRIT / HEMOGLOBIN / LEUKOCYTE COUNT / LYMPHOCYTE / MEAN CORPUSCULAR HEMOGLOBIN / MEAN CORPUSCULAR HEMOGLOBIN CONCENTRATION / MEAN CORPUSCULAR VOLUME / MONOCYTE / NEUTROPHIL / NUCLEATED RED BLOOD CELLS / PLATELET COUNT: tissue Blood; for ALANINE AMINOTRANSFERASE / ALBUMIN / ALKALINE PHOSPHATASE / ASPARTATE AMINOTRANSFERASE / BLOOD UREA NITROGEN / CARBON DIOXIDE / CHLORIDE / CHOLESTEROL / CREATINE PHOSPHOKINASE / CREATININE / GLUCOSE / LACTATE DEHYDROGENASE / LIPASE / PHOSPHORUS / POTASSIUM / SODIUM / TOTAL BILIRUBIN / TOTAL PROTEIN / URIC ACID: tissue Plasma
[1] = 0 mg/kg, 72 h, dose level Control, time 3 day
[2] = 0 mg/kg, 120 h, dose level Control, time 5 day
[3] = 13 mg/kg, 72 h, dose level Low, time 3 day
[4] = 13 mg/kg, 120 h, dose level Low, time 5 day

`CC1=C(/C=C/C(C)=C/C=C/C(C)=C\C(=O)O)C(C)(C)CCC1` [ISOTRETINOIN] was tested, and the “ABSOLUTE BASOPHIL” value [1] was 0 CELLS/uL, the “ABSOLUTE EOSINOPHIL” value [1] was 0 CELLS/uL and the “ABSOLUTE LYMPHOCYTE” value [1] was 8493 CELLS/uL. The “ABSOLUTE MONOCYTE” value [1] was 127 CELLS/uL, the “ABSOLUTE SEGMENTED NEUTROPHIL” value [1] was 896.67 CELLS/uL and the BASOPHIL [1] was 0%. The EOSINOPHIL [1] was 0%, the “ERYTHROCYTE COUNT” value [1] was 5.53 x10E6/uL and the HEMATOCRIT [1] was 34.07%. For the same molecule, the HEMOGLOBIN [1] was 13.28 G/DL, the “LEUKOCYTE COUNT” value [1] was 9.52 x10E3/uL and the LYMPHOCYTE [1] was 89.17%. For the same molecule, the “MEAN CORPUSCULAR HEMOGLOBIN” value [1] was 24.07 pg, the “MEAN CORPUSCULAR HEMOGLOBIN CONCENTRATION” value [1] was 39.03 G/DL and the “MEAN CORPUSCULAR VOLUME” value [1] was 61.62 fL. For the same molecule, the MONOCYTE [1] was 1.33%, the NEUTROPHIL [1] was 9.5% and the “NUCLEATED RED BLOOD CELLS” value [1] was 0.17 /100WBC. The “PLATELET COUNT” value [1] was 1054.17 x10E3/uL, the “ALANINE AMINOTRANSFERASE” value [1] was 77.67 u/L and the ALBUMIN [1] was 4.08 G/DL. The “ALKALINE PHOSPHATASE” value [1] was 404.5 u/L, the “ASPARTATE AMINOTRANSFERASE” value [1] was 83.17 u/L and the “BLOOD UREA NITROGEN” value [1] was 14.33 mg/dL. The “CARBON DIOXIDE” value [1] was 33.17 mmol/L, the CHLORIDE [1] was 101 MEQ/L and the CHOLESTEROL [1] was 76.33 mg/dL. The “CREATINE PHOSPHOKINASE” value [1] was 184.5 u/L, the CREATININE [1] was 0.13 mg/dL and the GLUCOSE [1] was 163.67 mg/dL. For the same molecule, the “LACTATE DEHYDROGENASE” value [1] was 130.33 u/L, the LIPASE [1] was 11 u/L and the PHOSPHORUS [1] was 9.27 mg/dL. For the same molecule, the POTASSIUM [1] was 6.26 MEQ/L, the SODIUM [1] was 143.57 MEQ/L and the “TOTAL BILIRUBIN” value [1] was 0.18 mg/dL. The “TOTAL PROTEIN” value [1] was 5.82 G/DL, the “URIC ACID” value [1] was 1.38 mg/dL and the “ABSOLUTE BASOPHIL” value [2] was 0 CELLS/uL. The “ABSOLUTE EOSINOPHIL” value [2] was 0 CELLS/uL, the “ABSOLUTE LYMPHOCYTE” value [2] was 8546.17 CELLS/uL and the “ABSOLUTE MONOCYTE” value [2] was 49.5 CELLS/uL. For the same molecule, the “ABSOLUTE SEGMENTED NEUTROPHIL” value [2] was 554.33 CELLS/uL, the BASOPHIL [2] was 0% and the EOSINOPHIL [2] was 0%. The “ERYTHROCYTE COUNT” value [2] was 5.36 x10E6/uL, the HEMATOCRIT [2] was 33.38% and the HEMOGLOBIN [2] was 13.2 G/DL. The “LEUKOCYTE COUNT” value [2] was 9.15 x10E3/uL, the LYMPHOCYTE [2] was 93.17% and the “MEAN CORPUSCULAR HEMOGLOBIN” value [2] was 24.68 pg. For the same molecule, the “MEAN CORPUSCULAR HEMOGLOBIN CONCENTRATION” value [2] was 39.58 G/DL, the “MEAN CORPUSCULAR VOLUME” value [2] was 62.38 fL and the MONOCYTE [2] was 0.5%. For the same molecule, the NEUTROPHIL [2] was 6.33%, the “NUCLEATED RED BLOOD CELLS” value [2] was 0.17 /100WBC and the “PLATELET COUNT” value [2] was 1099.33 x10E3/uL. The “ALANINE AMINOTRANSFERASE” value [2] was 62.33 u/L, the ALBUMIN [2] was 4.1 G/DL and the “ALKALINE PHOSPHATASE” value [2] was 419 u/L. The “ASPARTATE AMINOTRANSFERASE” value [2] was 83.17 u/L, the “BLOOD UREA NITROGEN” value [2] was 15.5 mg/dL and the “CARBON DIOXIDE” value [2] was 33.17 mmol/L. For the same molecule, the CHLORIDE [2] was 98 MEQ/L, the CHOLESTEROL [2] was 58.33 mg/dL and the “CREATINE PHOSPHOKINASE” value [2] was 393.17 u/L. The CREATININE [2] was 0.18 mg/dL, the GLUCOSE [2] was 163 mg/dL and the “LACTATE DEHYDROGENASE” value [2] was 111.5 u/L. It also gave an LIPASE [2] of 9.5 u/L, a PHOSPHORUS [2] of 10.02 mg/dL and a POTASSIUM [2] of 5.73 MEQ/L. For the same molecule, the SODIUM [2] was 143.65 MEQ/L, the “TOTAL BILIRUBIN” value [2] was 0.2 mg/dL and the “TOTAL PROTEIN” value [2] was 5.85 G/DL. The “URIC ACID” value [2] was 0.78 mg/dL, the “ABSOLUTE BASOPHIL” value [3] was 0 CELLS/uL and the “ABSOLUTE EOSINOPHIL” value [3] was 0 CELLS/uL. For the same molecule, the “ABSOLUTE LYMPHOCYTE” value [3] was 5796.67 CELLS/uL, the “ABSOLUTE MONOCYTE” value [3] was 69.67 CELLS/uL and the “ABSOLUTE SEGMENTED NEUTROPHIL” value [3] was 533.67 CELLS/uL. For the same molecule, the BASOPHIL [3] was 0%, the EOSINOPHIL [3] was 0% and the “ERYTHROCYTE COUNT” value [3] was 5.14 x10E6/uL. The HEMATOCRIT [3] was 32.4%, the HEMOGLOBIN [3] was 12.5 G/DL and the “LEUKOCYTE COUNT” value [3] was 6.4 x10E3/uL. For the same molecule, the LYMPHOCYTE [3] was 90.67%, the “MEAN CORPUSCULAR HEMOGLOBIN” value [3] was 24.33 pg and the “MEAN CORPUSCULAR HEMOGLOBIN CONCENTRATION” value [3] was 38.63 G/DL. For the same molecule, the “MEAN CORPUSCULAR VOLUME” value [3] was 63.07 fL, the MONOCYTE [3] was 1% and the NEUTROPHIL [3] was 8.33%. The “NUCLEATED RED BLOOD CELLS” value [3] was 0 /100WBC, the “PLATELET COUNT” value [3] was 977.33 x10E3/uL and the “ALANINE AMINOTRANSFERASE” value [3] was 80.33 u/L. The ALBUMIN [3] was 3.7 G/DL, the “ALKALINE PHOSPHATASE” value [3] was 427.67 u/L and the “ASPARTATE AMINOTRANSFERASE” value [3] was 93.33 u/L. For the same molecule, the “BLOOD UREA NITROGEN” value [3] was 12 mg/dL, the “CARBON DIOXIDE” value [3] was 35 mmol/L and the CHLORIDE [3] was 101.33 MEQ/L. The CHOLESTEROL [3] was 70.33 mg/dL, the “CREATINE PHOSPHOKINASE” value [3] was 298 u/L and the CREATININE [3] was 0.1 mg/dL. For the same molecule, the GLUCOSE [3] was 159.67 mg/dL, the “LACTATE DEHYDROGENASE” value [3] was 103.33 u/L and the LIPASE [3] was 9.33 u/L. For the same molecule, the PHOSPHORUS [3] was 9.4 mg/dL, the POTASSIUM [3] was 5.18 MEQ/L and the SODIUM [3] was 146.37 MEQ/L. For the same molecule, the “TOTAL BILIRUBIN” value [3] was 0.23 mg/dL, the “TOTAL PROTEIN” value [3] was 5.77 G/DL and the “URIC ACID” value [3] was 0.43 mg/dL. The “ABSOLUTE BASOPHIL” value [4] was 0 CELLS/uL, the “ABSOLUTE EOSINOPHIL” value [4] was 25 CELLS/uL and the “ABSOLUTE LYMPHOCYTE” value [4] was 7680.33 CELLS/uL. For the same molecule, the “ABSOLUTE MONOCYTE” value [4] was 0 CELLS/uL, the “ABSOLUTE SEGMENTED NEUTROPHIL” value [4] was 428 CELLS/uL and the BASOPHIL [4] was 0%. The EOSINOPHIL [4] was 0.33%, the “ERYTHROCYTE COUNT” value [4] was 5.2 x10E6/uL and the HEMATOCRIT [4] was 33.33%. For the same molecule, the HEMOGLOBIN [4] was 13.23 G/DL, the “LEUKOCYTE COUNT” value [4] was 8.13 x10E3/uL and the LYMPHOCYTE [4] was 94.33%. For the same molecule, the “MEAN CORPUSCULAR HEMOGLOBIN” value [4] was 25.47 pg, the “MEAN CORPUSCULAR HEMOGLOBIN CONCENTRATION” value [4] was 39.7 G/DL and the “MEAN CORPUSCULAR VOLUME” value [4] was 64.1 fL. For the same molecule, the MONOCYTE [4] was 0%, the NEUTROPHIL [4] was 5.33% and the “NUCLEATED RED BLOOD CELLS” value [4] was 0 /100WBC. The “PLATELET COUNT” value [4] was 1135 x10E3/uL, the “ALANINE AMINOTRANSFERASE” value [4] was 75.67 u/L and the ALBUMIN [4] was 3.67 G/DL. The “ALKALINE PHOSPHATASE” value [4] was 483 u/L, the “ASPARTATE AMINOTRANSFERASE” value [4] was 105.33 u/L and the “BLOOD UREA NITROGEN” value [4] was 12.33 mg/dL. The “CARBON DIOXIDE” value [4] was 32 mmol/L, the CHLORIDE [4] was 98.67 MEQ/L and the CHOLESTEROL [4] was 57 mg/dL. The “CREATINE PHOSPHOKINASE” value [4] was 433.67 u/L, the CREATININE [4] was 0.15 mg/dL and the GLUCOSE [4] was 156.67 mg/dL. The “LACTATE DEHYDROGENASE” value [4] was 119.33 u/L, the LIPASE [4] was 9 u/L and the PHOSPHORUS [4] was 10.47 mg/dL. For the same molecule, the POTASSIUM [4] was 5.72 MEQ/L, the SODIUM [4] was 143.43 MEQ/L and the “TOTAL BILIRUBIN” value [4] was 0.3 mg/dL. For the same molecule, the “TOTAL PROTEIN” value [4] was 5.7 G/DL and the “URIC ACID” value [4] was 0.67 mg/dL.
